PubChem BioAssay (NCI)
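Protocol summary: plate cells (96-well), add compound at 5 concentrations, incubate 48 h, interpolate endpoints linearly. TGI is the concentration that stops growth completely.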

Key:
Experiment in all cases: growth of human tumour cells (NCI), 48 h
[1] = test system: MDA-MB-435
[2] = test system: SF-295 CNS
[3] = test system: CCRF-CEM leukemia
[4] = test system: SR leukemia
[5] = test system: A498 renal
[6] = test system: M19-MEL melanoma
[7] = test system: DLD-1 colon
[8] = test system: DMS 273 small cell lung
[9] = test system: HT29 colon
[10] = test system: SN12C renal
[11] = test system: T-47D breast
[12] = test system: OVCAR-8 ovarian
[13] = test system: SK-OV-3 ovarian
[14] = test system: 786-0 renal
[15] = test system: HCT-15 colon
[16] = test system: MALME-3M melanoma
[17] = test system: U251 CNS
[18] = test system: XF 498 CNS
[19] = test system: KM20L2 colon
[20] = test system: CAKI-1 renal
[21] = test system: SF-268 CNS
[22] = test system: LOX IMVI melanoma
[23] = test system: NCI-H460 lung
[24] = test system: SNB-19 CNS
[25] = test system: ACHN renal
[26] = test system: M14 melanoma
[27] = test system: UACC-62 melanoma
[28] = test system: NCI-H226 lung
[29] = test system: MCF7 breast
[30] = test system: SK-MEL-28 melanoma
[31] = test system: HCC-2998 colon
[32] = test system: UO-31 renal
[33] = test system: MDA-MB-231 breast
[34] = test system: PC-3 prostate
[35] = test system: SK-MEL-2 melanoma
[36] = test system: OVCAR-5 ovarian
[37] = test system: DMS 114 small cell lung
[38] = test system: MDA-N
[39] = test system: UACC-257 melanoma
[40] = test system: OVCAR-3 ovarian
[41] = test system: SF-539 CNS
[42] = test system: OVCAR-4 ovarian
[43] = test system: SK-MEL-5 melanoma
[44] = test system: K-562 leukemia
[45] = test system: HOP-62 NSCLC
[46] = test system: HS 578T breast
[47] = test system: EKVX NSCLC
[48] = test system: LXFL 529 NSCLC
[49] = test system: BT-549 breast
[50] = test system: SW-620 colon
[51] = test system: HOP-18 NSCLC
[52] = test system: A549 NSCLC
[53] = test system: TK-10 renal
[54] = test system: RPMI-8226 leukemia
[55] = test system: MOLT-4 leukemia
[56] = test system: HOP-92 NSCLC
[57] = test system: NCI-H23 lung
[58] = test system: DU-145 prostate
[59] = test system: IGROV1 ovarian
[60] = test system: RXF-631 renal
[61] = test system: COLO 205 colon
[62] = test system: HCT-116 colon
[63] = test system: SNB-78 CNS
[64] = test system: SNB-75 CNS
[65] = test system: KM12 colon

O=C1c2c(O)cccc2C(C(=O)CCCC(=O)C2c3cccc(O)c3C(=O)c3c(O)cccc32)c2cccc(O)c21
TGI [1]: 2500 nM | TGI [2]: 2220 nM | TGI [3]: 8020 nM | TGI [4]: 4640 nM | TGI [5]: 3660 nM | TGI [6]: 4170 nM | TGI [7]: 7000 nM | TGI [8]: 1260 nM | TGI [9]: 2480 nM | TGI [10]: 12200 nM | TGI [11]: 941 nM | TGI [12]: 2770 nM | TGI [13]: 1050 nM | TGI [14]: 9720 nM | TGI [15]: 1380 nM | TGI [16]: 2850 nM | TGI [17]: 1880 nM | TGI [18]: 226 nM | TGI [19]: 8680 nM | TGI [20]: 4450 nM | TGI [21]: 3390 nM | TGI [22]: 1800 nM | TGI [23]: 661 nM | TGI [24]: 4120 nM | TGI [25]: 1020 nM | TGI [26]: 2480 nM | TGI [27]: 2040 nM | TGI [28]: 1470 nM | TGI [29]: 25000 nM | TGI [30]: 4530 nM | TGI [31]: 3400 nM | TGI [32]: 1080 nM | TGI [33]: 329 nM | TGI [34]: 467 nM | TGI [35]: 861 nM | TGI [36]: 1180 nM | TGI [37]: 502 nM | TGI [38]: 3390 nM | TGI [39]: 893 nM | TGI [40]: 798 nM | TGI [41]: 675 nM | TGI [42]: 820 nM | TGI [43]: 671 nM | TGI [44]: 4860 nM | TGI [45]: 2090 nM | TGI [46]: 202 nM | TGI [47]: 2350 nM | TGI [48]: 480 nM | TGI [49]: 4740 nM | TGI [50]: 14300 nM | TGI [51]: 828 nM | TGI [52]: 1640 nM | TGI [53]: 1670 nM | TGI [54]: 752 nM | TGI [55]: 17500 nM | TGI [56]: 1000 nM | TGI [57]: 1130 nM | TGI [58]: 2020 nM | TGI [59]: 2410 nM | TGI [60]: 3990 nM | TGI [61]: 1320 nM | TGI [62]: 3790 nM | TGI [63]: 785 nM | TGI [64]: 2820 nM | TGI [65]: 868 nM
